According to patent US9051310B2, “Nicotinamide derivative or salt thereof” (FUJIFILM Corporation, priority 2011, dated 2015):
pIC50: −log10 of the molar value. Structures can show the parent of a compound that is named as a salt.

What was measured:
[1] = molecular target: T1, glutathione S-transferase (GST)-linked full-length human Syk protein (Homo sapiens, UniProt P43405); assay: Syk enzyme assay; format: biochemical; settings: 0.83 nM Syk, time-resolved fluorescence; read-out: IC50 of Syk-inhibitory activity
T1 construct: glutathione S-transferase (GST)-linked full-length human Syk protein; purchased Carna Biosciences; host or cells: Baculovirus expression system
In short: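 Phosphotyrosine on a biotin-peptide substrate (0.5 μM) was read by time-resolved fluorescence at 615 and 665 nm with Eu-anti-pTyr antibody and APC-streptavidin after 1 h EDTA stop.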

[2] = system: THP-1 cells (TNFα secretion on human IgG-coated plate); assay: TNFα generation assay; format: cell-based; settings: IFN-γ differentiated THP-1 cells, 7 hours, AlphaLISA, read-out: IC50 of TNFα generation inhibitory activity
In short: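 Secreted TNFα was measured by AlphaLISA after 7 h of culture on human IgG-coated wells (coating at 10 μg/ml), with 5×10^4 cells/well. Before plating, the cells had been treated with compound for 30 min at room temperature. The cells were macrophage-like THP-1, produced by a 2-day exposure to 10 ng/ml IFN-γ.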

[3] = system: mouse thrombocytopenia induced by anti-mouse CD41 antibody; assay: Mouse thrombocytopenia model; format: in vivo; settings: Platelet, female BALB/c mice, 50 mg/kg 1 hour before anti-CD41 antibody, blood sampling 4 hours after antibody, read-out: improvement of platelet count compared with the control group
Protocol: Test compounds were tested to examine effects upon mouse thrombocytopenia. Each test compound (50 mg/kg) was administered to 5- to 7-week-old female BALB/c mice (Charles River Laboratories Japan, Inc.). One hour thereafter, an anti-mouse CD41 ([…]) antibody (SCB) (1 μg (200 μl)) was intravenously administered to each mouse so as to induce thrombocytopenia. Four hours after administration of the anti-CD41 antibody, blood sampling from the postcava was performed. The platelet count was determined using an automated hematology analyzer.

[4] = system: THP-1 cells (phagocytosis of opsonized Escherichia coli); assay: Antibody-dependent phagocytosis assay; format: cell-based; settings: Homo sapiens; IFNγ differentiated THP-1 cells, opsonized pHrodo Escherichia coli, 3 hours; read-out: IC50 upon phagocytosis inhibition
In short: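 Read-out was imaging-based quantification of pHrodo-labeled, antibody-opsonized E. coli taken up by Calcein AM-stained viable cells after 3 h at 37° C. The cells were IFNγ-differentiated THP-1 macrophages (10 ng/ml, 2 days), preincubated with compound for 30 min at room temperature.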

[5] = system: rat type II collagen arthritis; assay: Rat type II collagen-induced arthritis; format: in vivo; settings: female Lewis rats, oral administration 10 mg/kg/day, Day 7 to Day 20 once daily, Student's t-test
Protocol: The compounds were tested to examine effects upon rat type II collagen arthritis. Equivalent volumes of 0.05 mol/L acetic acid in which a 3 mg/mL bovine type II collagen solution (Collagen Gijutsu Kenshu-Kai) had been dissolved and Freund's incomplete adjuvant (Wako Pure Chemical Industries, Ltd.) were mixed to prepare an emulsion. A portion of the emulsion (0.5 ml) was intradermally injected into the tail bases of 6- to 8-week-old female Lewis rats (Charles River Laboratories Japan, Inc.) (Day 0). Each rat was subjected to the same treatment on Day 7 after the initial inoculation so as to induce arthritis. Each test compound was orally administered from Day 7 to Day 20 once daily. At a given time during the period from Day 7 to Day 21, the rat hindlimb volume was determined using a plethysmometer (UGO BASILE), and the result was designated as an arthritis index.

SMILES | pIC50 [1] | pIC50 [2] | pIC50 [4] | change in vivo at 50 mg/kg [3] | hindlimb swelling on Day 20 compared with the control group [5]
COC[C@@H](Nc1nc(Nc2cc(F)c3c(c2)c(N(C)C)nn3C)c(C(N)=O)cc1F)[C@H](C)N [Example 2-193, 6-(((2S,3S)-3-amino-1-methoxybutan-2-yl)amino)-2-((3-(dimethylamino)-7-fluoro-1-methyl-1H-indazol-5-yl)amino)-5-fluoronicotinamide] | 7.30 to 8.00 | 6.70 to 6.89 | 5.52 to 6.00 | ≥ 50% | –
Cc1cc(Nc2nc(N[C@H](CC(C)C)[C@H](C)N)c(F)cc2C(N)=O)cnc1C [Example 2-18, 6-(((2S,3R)-2-amino-5-methylhexan-3-yl)amino)-2-((5,6-dimethylpyridin-3-yl)amino)-5-fluoronicotinamide] | > 8.00 | 6.89 to 7.19 | > 6.00 | ≥ 50% | –
Cn1nc(OC(F)F)c2cc(Nc3nc(N[C@@H]4CCOC[C@@H]4N)c(F)cc3C(N)=O)ccc21 [Example 2-348, 6-(((3R,4R)-3-aminotetrahydro-2H-pyran-4-yl)amino)-2-((3-(difluoromethoxy)-1-methyl-1H-indazol-5-yl)amino)-5-fluoronicotinamide] | > 8.00 | 6.70 to 6.89 | > 6.00 | ≥ 50% | –
COCCn1ncc2c(Nc3nc(N[C@@H]4CCCC[C@@H]4N)c(F)cc3C(N)=O)cccc21 [Example 2-302, 6-(((1R,2S)-2-aminocyclohexyl)amino)-5-fluoro-2-((1-(2-methoxyethyl)-1H-indazol-4-yl)amino)nicotinamide] | > 8.00 | 6.70 to 6.89 | 5.52 to 6.00 | ≥ 50% | –
CN(C)c1nn(C)c2c(F)cc(Nc3nc(N[C@@H]4CCCC[C@@H]4N)c(F)cc3C(N)=O)cc12 [Example 2-184, 6-(((1R,2S)-2-aminocyclohexyl)amino)-2-((3-(dimethylamino)-7-fluoro-1-methyl-1H-indazole-5-yl)amino)-5-fluoronicotinamide hydrochloride] | > 8.00 | 6.89 to 7.19 | > 6.00 | ≥ 50% | significantly inhibited hindlimb swelling
COC[C@@H](Nc1nc(Nc2cc(OC)cc(OC)c2)c(C(N)=O)cc1F)[C@H](C)N [Example 2-267, 6-(((2S,3S)-3-amino-1-methoxybutan-2-yl)amino)-2-((3,5-dimethoxyphenyl)amino)-5-fluoronicotinamide] | > 8.00 | 6.89 to 7.19 | 5.52 to 6.00 | ≥ 50% | –
CCn1ncc2c(Nc3nc(N[C@@H]4CCOC[C@@H]4N)c(F)cc3C(N)=O)cccc21 [Example 2-330, 6-(((3R,4R)-3-aminotetrahydro-2H-pyran-4-yl)-amino)-2-((1-ethyl-1H-indazol-4-yl)amino)-5-fluoronicotinamide] | > 8.00 | 6.89 to 7.19 | > 6.00 | ≥ 50% | –
COc1cc(Nc2nc(N[C@H](C3CCC3)[C@H](C)N)c(F)cc2C(N)=O)cc(OC)c1 [Example 2-28] | > 8.00 | 6.89 to 7.19 | > 6.00 | ≥ 50% | –
CC[C@H](N)[C@@H](C)Nc1nc(Nc2cccc3c2cnn3CC)c(C(N)=O)cc1F [Example 2-100, 6-(((2R,3S)-3-aminopentan-2-yl)amino)-2-((1-ethyl-1H-indazol-4-yl)amino)-5-fluoronicotinamide] | > 8.00 | 6.70 to 6.89 | 5.52 to 6.00 | ≥ 50% | –
C[C@H](N)[C@H](Nc1nc(Nc2cc(F)c3c(c2)c(N(C)C)nn3C)c(C(N)=O)cc1F)C1CC1 [Example 2-188, 6-(((1R,2S)-2-amino-1-cyclopropylpropyl)amino)-2-((3-(dimethylamino)-7-fluoro-1-methyl-1H-indazol-5-yl)amino)-5-fluoronicotinamide] | > 8.00 | > 7.19 | > 6.00 | ≥ 50% | –
CN(C)c1nn(C)c2c(F)cc(Nc3nc(N[C@@H]4CCOC[C@@H]4N)c(F)cc3C(N)=O)cc12 [Example 2-213, 6-(((3R,4R)-3-aminotetrahydro-2H-pyran-4-yl)amino)-2-((3-(dimethylamino)-7-fluoro-1-methyl-1H-indazol-5-yl)amino)-5-fluoronicotinamide] | > 8.00 | 6.89 to 7.19 | > 6.00 | ≥ 50% | –

Second part, led by results:

pIC50 [1] | pIC50 [2] | pIC50 [4] | SMILES | change in vivo at 50 mg/kg [3] | hindlimb swelling on Day 20 compared with the control group [5]
> 8.00 | 6.89 to 7.19 | > 6.00 | COCCn1ncc2cc(Nc3nc(N[C@H](C4CC4)[C@H](C)N)c(F)cc3C(N)=O)ccc21 [Example 2-265, 6-(((1R,2S)-2-amino-1-cyclopropylpropyl)amino)-5-fluoro-2-((1-(2-methoxyethyl)-1H-indazol-5-yl)amino)nicotinamide] | ≥ 50% | –
7.30 to 8.00 | 6.89 to 7.19 | > 6.00 | Cc1ncc(Nc2nc(N[C@@H]3CCCC[C@@H]3N)c(F)cc2C(N)=O)cc1F [Example 2-142, 6-(((1R,2S)-2-aminocyclohexyl)amino)-5-fluoro-2-((5-fluoro-6-methylpyridin-3-yl)amino)nicotinamide] | ≥ 50% | –
> 8.00 | 6.89 to 7.19 | > 6.00 | COc1ccc(Nc2nc(N[C@H](C3CC3)[C@H](C)N)c(F)cc2C(N)=O)cc1OC [Example 2-48, 6-(((1R,2S)-2-amino-1-cyclopropylpropyl)amino)-2-((3,4-dimethoxyphenyl)amino)-5-fluoronicotinamide] | ≥ 50% | –
> 8.00 | 6.89 to 7.19 | > 6.00 | COCCn1nc(OC)c2cc(Nc3nc(N[C@@H]4CCCC[C@@H]4N)c(F)cc3C(N)=O)ccc21 [Example 2-123, 6-(((1R,2S)-2-aminocyclohexyl)amino)-5-fluoro-2-((3-methoxy-1-(2-methoxyethyl)-1H-indazol-5-yl)amino)nicotinamide] | ≥ 50% | –
> 8.00 | 6.89 to 7.19 | > 6.00 | CN(C)c1nn(C)c2ccc(Nc3nc(N[C@@H]4CCCC[C@@H]4N)c(F)cc3C(N)=O)cc12 [Example 2-1, 6-(((1R,2S)-2-aminocyclohexyl)amino)-2-((3-(dimethylamino)-1-methyl-1H-indazol-5-yl)amino)-5-fluoronicotinamide] | ≥ 50% | significantly inhibited hindlimb swelling
> 8.00 | 6.70 to 6.89 | 5.52 to 6.00 | CCC[C@@H](Nc1nc(Nc2ccc3c(c2)c(N(C)C)nn3C)c(C(N)=O)cc1F)[C@H](C)N [Example 2-87, 6-(((2S,3R)-2-aminohexan-3-yl)amino)-2-((3-(dimethylamino)-1-methyl-1H-indazol-5-yl)amino)-5-fluoronicotinamide] | ≥ 50% | –
7.30 to 8.00 | 6.70 to 6.89 | 5.52 to 6.00 | CC[C@H](N)[C@@H](C)Nc1nc(Nc2ccc3c(c2)c(N(C)C)nn3C)c(C(N)=O)cc1F [Example 2-91, 6-(((2R,3S)-3-aminopentan-2-yl)amino)-2-((3-(dimethylamino)-1-methyl-1H-indazol-5-yl)amino)-5-fluoronicotinamide] | ≥ 50% | –
> 8.00 | 6.70 to 6.89 | > 6.00 | CCC[C@@H](Nc1nc(Nc2cnc3c(c2)c(OC)nn3C)c(C(N)=O)cc1F)[C@H](C)N [Example 2-252, 6-(((2S,3R)-2-aminohexan-3-yl)amino)-5-fluoro-2-((3-methoxy-1-methyl-1H-pyrazolo[3,4-b]pyridin-5-yl)amino)nicotinamide] | ≥ 50% | –
> 8.00 | 6.70 to 6.89 | > 6.00 | COCCn1nc(OC(F)F)c2cc(Nc3nc(N[C@@H]4CCCC[C@@H]4N)c(F)cc3C(N)=O)ccc21 [Example 2-174, 6-(((1R,2S)-2-aminocyclohexyl)amino)-2-((3-(difluoromethoxy)-1-(2-methoxyethyl)-1H-indazol-5-yl)amino)-5-fluoronicotinamide] | ≥ 50% | –
